Results taken from patent US11744816B2, “Fixed dose combinations and formulations comprising ETC1002 and ezetimibe and methods of treating or reducing the risk of cardiovascular disease” (Esperion Therapeutics, Inc., priority 2015, dated 2023).

Assays:
[1] = system: hypercholesterolemic patients; test: Phase 2b double-blind trial: safety, treatment-emergent adverse events and laboratory abnormalities
Experimental: The study population included both statin-tolerant and statin-intolerant participants. Statin intolerance was defined as the inability to tolerate ≥2 statins because of muscle-related symptoms such as pain, weakness, or cramping that began or increased during statin therapy and resolved on statin discontinuation. At least 1 statin must have been administered at the lowest approved daily dose, defined as rosuvastatin 5 mg, atorvastatin 10 mg, simvastatin 10 mg, lovastatin 20 mg, pravastatin 40 mg, fluvastatin 40 mg, or pitavastatin 2 mg. Treatment with less than the lowest approved daily dose of a statin (i.e., skipping days) was considered equivalent to not tolerating 1 statin at the lowest approved daily dose.
Patients underwent a 5-week washout of all lipid-regulating drugs and dietary supplements and abstained from these drugs and supplements throughout the study. Patients also underwent a 5-week patient-only-blinded placebo run-in during the screening period (week −5 to week 0). This single-blind placebo run-in period was used to eliminate patients with muscle-related AEs during placebo treatment. Patients reporting new or worsening, unexplained muscle-related AEs during this run-in period were excluded from the study.
Patients were stratified (1:1) by history of statin intolerance and randomized at week 0 in a 4:4:4:1:1 ratio to once-daily treatment with capsules containing ETC-1002 120 mg, ETC-1002 180 mg, EZE, ETC-1002 120 mg plus EZE, or ETC-1002 180 mg plus EZE.
The safety of ETC-1002 was assessed using treatment-emergent AEs; hematology, serum chemistry, and urinalysis laboratory values; physical examination findings, vital sign measurements, electrocardiogram (ECG) readings; weight; and ankle and waist circumference measurements. AEs were coded using the Medical Dictionary for Regulatory Activities version 16.0 and evaluated by the investigator for severity and relation to study drug. Muscle-related AEs were defined as those from the system organ class of musculoskeletal and connective tissue disorders, except for those that were not obviously muscle related Terms included in the muscle-related AFE analysis were selected from this system organ class after database lock and before unblinding.
Safety analyses were performed on the safety population, which included randomized patients who received at least 1 dose of study drug. Baseline patient characteristics were summarized for the safety population by treatment group and statin-tolerance subgroup.
Muscle-related AEs also were summarized by statin-tolerance subgroup.

[2] = system: hypercholesterolemic patients; test: Phase 2b double-blind trial: percent changes from baseline to week 12 in lipids and CRP; assay type: in vivo, human; conditions: for Percent change from baseline to week 12 in Apolipoprotein A-I / Percent change from baseline to week 12 in Apolipoprotein B / Percent change from baseline to week 12 in HDL particle number / Percent change from baseline to week 12 in HDL-C / Percent change from baseline to week 12 in LDL particle number / Percent change from baseline to week 12 in LDL-C / Percent change from baseline to week 12 in Non-HDL-C / Percent change from baseline to week 12 in Total cholesterol / Percent change from baseline to week 12 in VLDL particle number: 12 weeks, mITT; for Percent change from baseline to week 12 in Apolipoprotein A-I / Percent change from baseline to week 12 in Apolipoprotein B / Percent change from baseline to week 12 in HDL particle number / Percent change from baseline to week 12 in HDL-C / Percent change from baseline to week 12 in LDL particle number / Percent change from baseline to week 12 in LDL-C / Percent change from baseline to week 12 in Non-HDL-C / Percent change from baseline to week 12 in Total cholesterol: LS mean ± SE; for Percent change from baseline to week 12 in VLDL particle number: median (interquartile range)
Experimental: LDL-C was calculated using the Friedewald equation.
The primary endpoint was the percent change from baseline to week 12 in calculated LDL-C in patients treated with ETC-1002 monotherapy versus those treated with EZE alone. Secondary endpoints included the dose-response relationship between ETC-1002 and the percent change in LDL-C from baseline to week 12, the percent change in LDL-C from baseline to week 12 in patients treated with ETC-1002 plus EZE versus those treated with EZE alone, and the percent change from baseline to week 12 for all treatment groups in LDL particle number, apolipoprotein B, total cholesterol, non-high-density lipoprotein cholesterol (non-HDL-C), HDL-C, HDL particle number, apolipoprotein A-I, triglycerides, very-low-density lipoprotein (VLDL) particle number, and high-sensitivity C-reactive protein (CRP). Lipoprotein particle number was measured using nuclear magnetic resonance […].
An analysis of covariance was used to compare each ETC-1002 treatment group with EZE monotherapy for each of the efficacy endpoints. The primary model included the effects of treatment and statin intolerance and the baseline value as a covariate. Baseline was defined as the mean of values from weeks −1 and 0 for LDL-C, non-HDL-C, total cholesterol, HDL-C, and triglycerides. For all other lipid and biomarker measures, baseline was defined as the last value before the first dose of study drug. Missing values at week 12 were imputed using the last-observation-carried-forward procedure. When LDL-C could not be calculated (i.e., triglycerides >400 mg/dL), beta-quantification measurements were used to determine LDL-C values. Least-squares (LS) means and standard errors were obtained for each treatment group; differences in LS means and p-values were obtained for the treatment comparisons. Graphical methods (e.g., normal probability plot and histogram of residuals, plot of residuals vs. predicted values) or analytical methods (e.g., Shapiro-Wilk test), or both, were used to assess the model assumptions. Because of departures from normality observed in the parameters of triglycerides, CRP, and VLDL particle number, nonparametric analyses were performed for these measures, with p-values obtained from the Wilcoxon rank-sum test and median values presented.
Percent changes from baseline in LDL-C also were summarized by statin-tolerance subgroup. To assess the dose-response relationship for ETC-1002 monotherapy, the primary analysis of covariance model was used for the comparison of the ETC-1002 120 mg and ETC-1002 180 mg. Statistical testing of the efficacy endpoints was 2-sided and conducted at the 5% level of significance with no adjustment for multiple comparisons.

[3] = ETC-1002 180 mg once daily, 12 weeks, safety population
[4] = ETC-1002 180 mg once daily, 12 weeks, statin-intolerant patients
[5] = ETC-1002 180 mg once daily, 12 weeks, statin-tolerant patients

## CC(C)(CCCCCC(O)CCCCCC(C)(C)C(=O)O)C(=O)O [ETC-1002, 8-hydroxy-2,2,14,14 tetramethylpentadecanedioic acid]
[1]; [3]
  Most common AEs: Upper respiratory tract infection: 6 (6%) n (%)
  Most common AEs: Urinary tract infection: 4 (4%) n (%)
  Treatment-emergent AEs: Any AE(s): 55 (55%) n (%)
  Treatment-emergent AEs: Discontinuation due to AE(s): 6 (6%) n (%)
  Treatment-emergent AEs: Serious AE(s): 1 (1%) n (%)
  Treatment-emergent AEs: Study drug-related AE(s): 18 (18%) n (%)
[1]; [4]
  Any muscle-related AE: 6 (12%) n (%)
  Muscle-related AE leading to discontinuation: 2 (4%) n (%)
  Muscle-related AEs: Muscle spasms: 2 (4%) n (%)
  Muscle-related AEs: Muscular weakness: 1 (2%) n (%)
  Muscle-related AEs: Musculoskeletal chest pain: 1 (2%) n (%)
  Muscle-related AEs: Musculoskeletal stiffness: 0 n (%)
  Muscle-related AEs: Myalgia: 1 (2%) n (%)
  Muscle-related AEs: Pain in extremity: 1 (2%) n (%)
  Muscle-related AEs: Sensation of heaviness: 0 n (%)
[1]; [5]
  Any muscle-related AE: 0 n (%)
  Muscle-related AE leading to discontinuation: 0 n (%)
  Muscle-related AEs: Muscle spasms: 0 n (%)
  Muscle-related AEs: Musculoskeletal pain: 0 n (%)
  Muscle-related AEs: Myalgia: 0 n (%)
[1]; ETC-1002 180 mg, entire study population
  Myalgia, patients affected: 1%
[2]; ETC-1002 120 mg
  Decrease in median CRP from baseline to week 12 endpoint: 30%
[2]; ETC-1002 120 mg alone
  LDL-C reduction from baseline to week 12: 27%
[2]; ETC-1002 120 mg once daily
  Percent change from baseline to week 12 in Apolipoprotein A-I: −0.2 ± 1.1%
  Percent change from baseline to week 12 in Apolipoprotein B: −19.3 ± 1.3 %
  Percent change from baseline to week 12 in HDL particle number: 5.0 ± 1.3%
  Percent change from baseline to week 12 in HDL-C: −5.8 ± 1.4 %
  Percent change from baseline to week 12 in LDL particle number: −21.8 ± 1.7 %
  Percent change from baseline to week 12 in LDL-C: −27.5 ± 1.3 %
  Percent change from baseline to week 12 in Non-HDL-C: −23.2 ± 1.2 %
  Percent change from baseline to week 12 in Total cholesterol: −19.3 ± 0.9 %
  Percent change from baseline to week 12 in VLDL particle number: −2.7 (68.5) %
[2]; ETC-1002 180 mg
  Decrease in median CRP from baseline to week 12 endpoint: 40%
[2]; ETC-1002 180 mg alone
  LDL-C reduction from baseline to week 12: 30%
[2]; ETC-1002 180 mg once daily
  Percent change from baseline to week 12 in Apolipoprotein A-I: 0.1 ± 1.2%
  Percent change from baseline to week 12 in Apolipoprotein B: −21.3 ± 1.3 %
  Percent change from baseline to week 12 in HDL particle number: 6.2 ± 1.4%
  Percent change from baseline to week 12 in HDL-C: −4.8 ± 1.4 %
  Percent change from baseline to week 12 in LDL particle number: −24.6 ± 1.8 %
  Percent change from baseline to week 12 in LDL-C: −30.1 ± 1.3 %
  Percent change from baseline to week 12 in Non-HDL-C: −25.3 ± 1.1 %
  Percent change from baseline to week 12 in Total cholesterol: −20.7 ± 0.9 %
  Percent change from baseline to week 12 in VLDL particle number: 15.3 (80.5) %
[2]; ETC-1002 alone (120 mg or 180 mg), up to
  LDL-C reduction from baseline to week 12: up to 30%
